Measured values: US20090215857A1 (Pfizer Products Inc., priority 2005, published 2009)

target: T1, human norepinephrine transporter (Homo sapiens, UniProt P23975); assay: hNET receptor binding ([125I]-RTI-55 radioligand); settings: membranes of HEK-293 cells transfected with human norepinephrine transporter cDNA; 50 pM [125I]-RTI-55; IC50 converted by Cheng-Prusoff; read-out: NET Ki
T1 construct: expressed in transfected cells; host or cells: HEK-293
Experimental: (§1) Cell pastes of HEK-293 cells transfected with a human norepinephrine transporter cDNA were prepared. The cell pastes were resuspended in 400 to 700 ml of Krebs-HEPES assay buffer (25 mM HEPES, 122 mM NaCl, 3 mM KCl, 1.2 mM MgSO4, 1.3 mM CaCl2, and 11 mM glucose, pH 7.4) with a Polytron homogenizer at setting 7 for 30 seconds. Aliquots of membranes (5 mg/ml protein) were stored in liquid nitrogen until used.
The binding assay was set up in Beckman deep-well polypropylene plates with a total volume of 250 μl containing: test compound (10^−5M to 10^−12M), cell membranes, and 50 pM [^125I]-RTI-55 (Perkin Elmer, NEX-272; specific activity 2200 Ci/mmol). The reaction was incubated by gentle agitation for 90 minutes at room temperature and was terminated by filtration through Whatman GF/C filter plates using a Brandel 96-well plate harvester. Scintillation fluid (100 μl) was added to each well, and bound [^125I]-RTI-55 was determined using a Wallac Trilux Beta Plate Counter. Test compounds were run in duplicate, and specific binding was defined as the difference between binding in the presence and absence of 10 μM desipramine.
Excel and GraphPad Prism software were used for data calculation and analysis. IC50 values were converted to K, values using the Cheng-Prusoff equation.

T1 sequence (P23975 whole entry): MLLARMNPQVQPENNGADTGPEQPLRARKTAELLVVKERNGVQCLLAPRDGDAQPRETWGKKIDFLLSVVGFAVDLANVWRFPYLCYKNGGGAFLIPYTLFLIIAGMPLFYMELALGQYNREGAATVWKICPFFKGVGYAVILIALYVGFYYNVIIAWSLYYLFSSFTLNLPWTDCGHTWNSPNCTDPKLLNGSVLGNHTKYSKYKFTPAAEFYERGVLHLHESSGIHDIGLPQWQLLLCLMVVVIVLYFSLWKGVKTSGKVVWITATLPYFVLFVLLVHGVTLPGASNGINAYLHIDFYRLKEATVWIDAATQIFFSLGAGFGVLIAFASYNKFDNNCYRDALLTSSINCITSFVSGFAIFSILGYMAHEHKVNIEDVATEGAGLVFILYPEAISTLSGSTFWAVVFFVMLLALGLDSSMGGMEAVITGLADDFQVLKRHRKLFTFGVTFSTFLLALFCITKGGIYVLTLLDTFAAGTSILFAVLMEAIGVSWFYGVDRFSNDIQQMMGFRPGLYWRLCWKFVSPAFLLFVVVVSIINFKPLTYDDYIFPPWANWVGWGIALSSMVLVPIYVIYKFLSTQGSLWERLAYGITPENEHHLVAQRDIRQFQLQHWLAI

SMILES | Ki [nM]
COc1ccc(-c2ccccc2CO[C@H]2CCNC2)cc1C [Example D-2, (S)-3-(4′-Methoxy-3′-methyl-biphenyl-2-ylmethoxy)-pyrrolidine] | 8.42
Fc1ccccc1-c1ccccc1CO[C@H]1CCNC1 [Example D-3, (S)-3-(2′-Fluoro-biphenyl-2-ylmethoxy)-pyrrolidine] | 14.7
Clc1ccc(-c2ccccc2CO[C@H]2CCNC2)cc1Cl [Example D-4, (S)-3-(3′,4′-Dichloro-biphenyl-2-ylmethoxy)-pyrrolidine] | 15.1
CC(C)N(C(=O)c1ccccc1-c1ccccc1CO[C@H]1CCNC1)C(C)C [Example D-5, (S)-2′-(Pyrrolidin-3-yloxymethyl)-biphenyl-2-carboxylic acid diisopropylamide] | 17.9
Fc1cccc(-c2ccccc2CO[C@H]2CCNC2)c1 [Example D-6, (S)-3-(3′-Fluoro-biphenyl-2-ylmethoxy)-pyrrolidine] | 18.5
Cc1ccc(-c2ccccc2CO[C@H]2CCNC2)cc1C [Example D-7, (S)-3-(3′,4′-Dimethyl-biphenyl-2-ylmethoxy)-pyrrolidine] | 21.3
Fc1ccc(F)c(-c2ccccc2CO[C@H]2CCNC2)c1 [Example D-8, (S)-3-(2′,5′-Difluoro-biphenyl-2-ylmethoxy)-pyrrolidine] | 21.9
Fc1ccccc1-c1ccccc1CO[C@H]1CCNC1 [Example D-10, (S)-3-(2′-Fluoro-biphenyl-2-ylmethoxy)-pyrrolidine] | 26.5

More lines, now with the values ahead:

Ki [nM] | SMILES
39.6 | Cc1cc(-c2ccccc2CO[C@H]2CCNC2)ccc1F [Example D-11, (S)-3-(4′-Fluoro-3′-methyl-biphenyl-2-ylmethoxy)-pyrrolidine]
41.6 | Clc1ccc(-c2ccccc2CO[C@H]2CCNC2)cc1 [Example D-12, (S)-3-(4′-Chloro-biphenyl-2-ylmethoxy)-pyrrolidine]
43.8 | Clc1cccc(-c2ccccc2CO[C@H]2CCNC2)c1 [Example D-13, (S)-3-(3′-Chloro-biphenyl-2-ylmethoxy)-pyrrolidine]
47.3 | Fc1ccc(-c2ccccc2CO[C@H]2CCNC2)cc1Cl [Example D-14, (S)-3-(3′-Chloro-4′-fluoro-biphenyl-2-ylmethoxy)-pyrrolidine]
55.4 | c1ccc(-c2cccc3ccccc23)c(CO[C@H]2CCNC2)c1 [Example D-15, (S)-3-(2-Naphthalen-1-yl-benzyloxy)-pyrrolidine]
63.5 | Cc1cccc(-c2ccccc2CO[C@H]2CCNC2)c1 [Example D-16, (S)-3-(3′-Methyl-biphenyl-2-ylmethoxy)-pyrrolidine]
87 | FC(F)(F)Oc1cccc(-c2ccccc2CO[C@H]2CCNC2)c1 [Example D-17, (S)-3-(3′-Trifluoromethoxy-biphenyl-2-ylmethoxy)-pyrrolidine]
102 | Fc1ccc(Cl)c(-c2ccccc2CO[C@H]2CCNC2)c1 [Example D-18, (S)-3-(2′-Chloro-5′-fluoro-biphenyl-2-ylmethoxy)-pyrrolidine]
108 | Clc1ccccc1-c1ccccc1CO[C@H]1CCNC1 [Example D-19, (S)-3-(2′-Chloro-biphenyl-2-ylmethoxy)-pyrrolidine]
108 | CSc1cccc(-c2ccccc2CO[C@H]2CCNC2)c1 [Example D-20, (S)-3-(3′-Methylsulfanyl-biphenyl-2-ylmethoxy)-pyrrolidine]
113 | COc1ccc(-c2ccccc2CO[C@H]2CCNC2)cc1F [Example D-21, (S)-3-(3′-Fluoro-4′-methoxy-biphenyl-2-ylmethoxy)-pyrrolidine]

target: T2, human serotonin transporter (Homo sapiens, UniProt P31645); assay: hSERT receptor binding ([125I]-RTI-55 radioligand); settings: membranes of HEK-293 cells transfected with human serotonin transporter cDNA; 50 pM [125I]-RTI-55; IC50 converted by Cheng-Prusoff; read-out: SERT Ki
T2 construct: expressed in transfected cells; host or cells: HEK-293
Experimental: as §1, with “serotonin” for “norepinephrine”, “Setting” for “setting”, “(˜2.5” for “(5”
Assays were set up in FlashPlates pre-coated with 0.1% PEI in a total volume of 250 μl containing: test compound (10^−5M to 10^−12M), cell membranes, and 50 pM [^125I]-RTI-55 (Perkin Elmer, NEX-272; specific activity 2200 Ci/mmol). The reaction was incubated and gently agitated for 90 minutes at room temperature, and terminated by removal of assay volume. Plates were covered, and bound [^125I]-RTI-55 was determined using a Wallac Trilux Beta Plate Counter. Test compounds were run in duplicate, and specific binding was defined as the difference between binding in the presence and absence of 10 μM citalopram.
Excel and GraphPad Prism software were used for data calculation and analysis. IC50 values were converted to Ki values using the Cheng-Prusoff equation.

T2 sequence (P31645 whole entry): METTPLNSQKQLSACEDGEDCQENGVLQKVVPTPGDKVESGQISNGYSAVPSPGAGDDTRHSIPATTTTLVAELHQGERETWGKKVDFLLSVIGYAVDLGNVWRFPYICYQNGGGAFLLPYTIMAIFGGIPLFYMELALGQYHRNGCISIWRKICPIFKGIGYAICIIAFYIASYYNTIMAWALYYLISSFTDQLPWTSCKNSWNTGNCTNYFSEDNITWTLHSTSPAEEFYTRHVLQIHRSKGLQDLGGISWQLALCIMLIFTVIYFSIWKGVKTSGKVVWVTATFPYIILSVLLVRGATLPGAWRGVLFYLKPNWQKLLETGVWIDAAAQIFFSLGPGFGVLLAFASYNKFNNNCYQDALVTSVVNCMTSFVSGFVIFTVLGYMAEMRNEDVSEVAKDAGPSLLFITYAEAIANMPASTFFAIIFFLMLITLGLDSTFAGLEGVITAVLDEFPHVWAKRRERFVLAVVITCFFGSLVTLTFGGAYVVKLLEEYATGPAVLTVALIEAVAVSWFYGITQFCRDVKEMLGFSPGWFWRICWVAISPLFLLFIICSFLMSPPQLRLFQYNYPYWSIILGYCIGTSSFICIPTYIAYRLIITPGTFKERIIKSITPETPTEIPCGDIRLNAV

SMILES | Ki [nM]
COc1ccc(-c2ccccc2CO[C@H]2CCNC2)cc1C [Example D-2, (S)-3-(4′-Methoxy-3′-methyl-biphenyl-2-ylmethoxy)-pyrrolidine] | 261
Fc1ccccc1-c1ccccc1CO[C@H]1CCNC1 [Example D-3, (S)-3-(2′-Fluoro-biphenyl-2-ylmethoxy)-pyrrolidine] | 304
Clc1ccc(-c2ccccc2CO[C@H]2CCNC2)cc1Cl [Example D-4, (S)-3-(3′,4′-Dichloro-biphenyl-2-ylmethoxy)-pyrrolidine] | 18.3
CC(C)N(C(=O)c1ccccc1-c1ccccc1CO[C@H]1CCNC1)C(C)C [Example D-5, (S)-2′-(Pyrrolidin-3-yloxymethyl)-biphenyl-2-carboxylic acid diisopropylamide] | 197
Fc1cccc(-c2ccccc2CO[C@H]2CCNC2)c1 [Example D-6, (S)-3-(3′-Fluoro-biphenyl-2-ylmethoxy)-pyrrolidine] | 18.4
Cc1ccc(-c2ccccc2CO[C@H]2CCNC2)cc1C [Example D-7, (S)-3-(3′,4′-Dimethyl-biphenyl-2-ylmethoxy)-pyrrolidine] | 110
Fc1ccc(F)c(-c2ccccc2CO[C@H]2CCNC2)c1 [Example D-8, (S)-3-(2′,5′-Difluoro-biphenyl-2-ylmethoxy)-pyrrolidine] | 208
Fc1ccccc1-c1ccccc1CO[C@H]1CCNC1 [Example D-10, (S)-3-(2′-Fluoro-biphenyl-2-ylmethoxy)-pyrrolidine] | 317

Now from value to compound:

Ki [nM] | SMILES
26.7 | Cc1cc(-c2ccccc2CO[C@H]2CCNC2)ccc1F [Example D-11, (S)-3-(4′-Fluoro-3′-methyl-biphenyl-2-ylmethoxy)-pyrrolidine]
101 | Clc1ccc(-c2ccccc2CO[C@H]2CCNC2)cc1 [Example D-12, (S)-3-(4′-Chloro-biphenyl-2-ylmethoxy)-pyrrolidine]
21.6 | Clc1cccc(-c2ccccc2CO[C@H]2CCNC2)c1 [Example D-13, (S)-3-(3′-Chloro-biphenyl-2-ylmethoxy)-pyrrolidine]
15.1 | Fc1ccc(-c2ccccc2CO[C@H]2CCNC2)cc1Cl [Example D-14, (S)-3-(3′-Chloro-4′-fluoro-biphenyl-2-ylmethoxy)-pyrrolidine]
272 | c1ccc(-c2cccc3ccccc23)c(CO[C@H]2CCNC2)c1 [Example D-15, (S)-3-(2-Naphthalen-1-yl-benzyloxy)-pyrrolidine]
24.7 | Cc1cccc(-c2ccccc2CO[C@H]2CCNC2)c1 [Example D-16, (S)-3-(3′-Methyl-biphenyl-2-ylmethoxy)-pyrrolidine]
30.6 | FC(F)(F)Oc1cccc(-c2ccccc2CO[C@H]2CCNC2)c1 [Example D-17, (S)-3-(3′-Trifluoromethoxy-biphenyl-2-ylmethoxy)-pyrrolidine]
218 | Fc1ccc(Cl)c(-c2ccccc2CO[C@H]2CCNC2)c1 [Example D-18, (S)-3-(2′-Chloro-5′-fluoro-biphenyl-2-ylmethoxy)-pyrrolidine]
346 | Clc1ccccc1-c1ccccc1CO[C@H]1CCNC1 [Example D-19, (S)-3-(2′-Chloro-biphenyl-2-ylmethoxy)-pyrrolidine]
24.8 | CSc1cccc(-c2ccccc2CO[C@H]2CCNC2)c1 [Example D-20, (S)-3-(3′-Methylsulfanyl-biphenyl-2-ylmethoxy)-pyrrolidine]
431 | COc1ccc(-c2ccccc2CO[C@H]2CCNC2)cc1F [Example D-21, (S)-3-(3′-Fluoro-4′-methoxy-biphenyl-2-ylmethoxy)-pyrrolidine]
